Measured values: patent publication US4382088A, “4,7-Dihydro-4,7-dioxi-1H-cyclohepta[b]pyridine derivatives” (Ayerst, McKenna & Harrison, Inc., priority 1981, dated 1983)

Assays:
aldose reductase [1] = conditions: Dvornik et al. 1973; Peterson et al. 1979; cited from earlier work
aldose reductase [2] = target: T1, aldose reductase (Bos taurus, UniProt P16116); assay: in vitro aldose reductase inhibition (modified Hayman and Kinoshita procedure, enzyme from bovine lens); type: biochemical; conditions: for inhibition at 10 µM: 10^-5 molar, read-out: % Inhibition at Different Molar Concentrations (in vitro), 10^-5; for inhibition at 1 µM: 10^-6 molar, read-out: % Inhibition at Different Molar Concentrations (in vitro), 10^-6; for inhibition at 0.1 µM: 10^-7 molar, read-out: % Inhibition at Different Molar Concentrations (in vitro), 10^-7
T1 construct: preparation of the enzyme from bovine lens; from tissue; host or cells: bovine lens
Protocol: In the present case the procedure of Hayman and Kinoshita is modified in that the final chromatography step is omitted in the preparation of the enzyme from bovine lens.
The following results were obtained when the foregoing listed compounds of formula I were evaluated in the above in vitro test.

[3] = hygroscopicity of analytical sample; type: physicochemical; conditions: analytical sample dried under reduced pressure at 140° C.
Protocol: 3-(Ethoxycarbonyl)-4,7-dihydro-6-methoxy-4,7-dioxo-1H-cyclohepta[b]pyridine-1-acetic acid ethyl ester (2.5 g), described in example 5, was heated at reflux in 15% (w/v) aqueous HCl for 2 hr. The resulting precipitate was collected, washed with water and acetone, and recrystallized from water to give 1.8 g of the title compound; mp 272°-274° C.; nmr (DMSO-d6) δ3.95 (s, 3H), 5.5 (s, 2H), 7.28 & 7.75 (2d, 2H), 7.95 (s, 1H), 9.0 (1H, s); ir (Nujol*) 2900, 1700, 1565, 1265, 1165 cm^-1; uv λmax (MeOH) 347 nm (ε11,630), 306 (10,470), 266 (21,365), 249 (32,290). An analytical sample dried under reduced pressure at 140° C. was hygroscopic; Anal Calcd for C14 H11 NO7 : C, 55.09% H, 3.63% N, 4.59%; Found: C, 54.41% H, 3.60% N, 4.55%.

Row | Compound | aldose reductase inhibition reported in the literature, in words (aldose reductase [1]) | inhibition at 10 µM (aldose reductase [2]) | inhibition at 1 µM (aldose reductase [2]) | inhibition at 0.1 µM (aldose reductase [2]) | hygroscopicity [3]
1 | O=C(O)CN1C(=O)c2cccc3cccc(c23)C1=O [1,3-Dioxo-1H-benz[de]isoquinoline-2(3H)-acetic acid] | effective inhibitor of aldose reductase | – | – | – | –
2 | CCOC(=O)COc1cc2c(=O)c(C(=O)OCC)cn(CC(=O)OCC)c2ccc1=O [Example 5 (R^3 = OCH2 COOC2 H5), 3-(ethoxycarbonyl)-6-[(2-ethoxy-2-oxoethyl)oxy]-4,7-dihydro-4,7-dioxo-1H-cyclohepta[b]pyridine-1-acetic acid ethyl ester] | – | 40% | – | – | –
3 | O=C(O)COc1cc2c(=O)c(C(=O)O)cn(CC(=O)O)c2ccc1=O [Example 7 (R^3 = OCH2 COOH), 3-carboxy-6-[(carboxymethyl)oxy]-4,7-dihydro-4,7-dioxo-1H-cyclohepta[b]pyridine-1-acetic acid monohydrate] | – | 97% | 88% | 31% | –
4 | COc1cc2c(=O)c(C(=O)O)cn(CC(=O)O)c2ccc1=O [Example 7 (R^3 = OCH3), 3-Carboxy-4,7-dihydro-6-methoxy-4,7-dioxo-1H-cyclohepta[b]pyridine-1-aceticAcid] | – | 89% | 79% | 30% | hygroscopic
5 | O=C(O)Cn1cc(C(=O)O)c(=O)c2cc(OCc3ccccc3)c(=O)ccc21 [Example 8, 6-Benzyloxy-3-carboxy-4,7-dihydro-4,7-dioxo-1H-cyclohepta[b]pyridine-1-acetic Acid] | – | 88% | 79% | 37% | –
6 | O=C1NC(=O)[C@@]2(CCOc3ccc(F)cc32)N1 [sorbinil, (S)-6-Fluoro-2,3-dihydrospiro(4H-1-benzopyran-4,4'-imidazolidine)-2',5'-dione] | aldose reductase inhibiting properties | – | – | – | –
